# Test results reported in patent publication US20210113617A1, “METHODS AND COMPOSITIONS FOR TH9 CELL MEDIATED CANCER TREATMENT” (Wake Forest University Health Sciences, priority 2018, published 2021).
# Key:
# OT-II-Th9 cells = experiment: QNZ on restimulated OT-II-Th9 cells (CFSE dilution, cell yield, Annexin V/PI); type: cell-based, mice
# Protocol: (§1) CFSE labeling and cytotoxicity assay. In some experiments, Th cells were incubated for 5 minutes at 37° C. with 1 μM CFSE in PBS, and then washed extensively. We measured proliferation of T cells by the relative CFSE dilution method after stimulation or transfer into tumor-bearing mice. In the cytotoxicity assay, B16-OVA target cells or B16 non-target cells for OT-II T cells were labeled with 5 μM CFSE. B16-OVA target cells or B16 non-target control cells were incubated alone in triplicate with the OT-II T cells at a 1:10 effector-to-target ratio. For TRP-1 T cells, B16 target cells or MC38 non-target control cells were used. After 18 hours, CFSE^+ tumor cells from each target and control well were stained using FVD and analyzed by FACS. FVD^+ tumor cells were considered as dead cells. The percent specific lysis was calculated as (FVD^+ target−FVD^+ control)×100%.
# (§2) Moreover, we further confirmed the increased proliferative capacity of Th9 cells by CFSE-dilution assay and by calculating the cell yields after the first-round activation and the subsequent reactivation (FIGS. 5G-5H).
# OT-II-Th17 cells = experiment: QNZ on restimulated OT-II-Th17 cells (CFSE dilution); type: cell-based, mice; settings: restimulated with antigen-pulsed APCs for 2 days in presence of QNZ
# Protocol: as §1, §2
smiles,measurement,setting,value
Nc1ccc2ncnc(NCCc3ccc(Oc4ccccc4)cc3)c2c1 [QNZ],Th9 hyperproliferation,OT-II-Th9 cells; restimulated with OT-II peptide-pulsed APCs in presence of QNZ for 48 hours,significantly arrested Th9 hyperproliferation
same,Th9 cell apoptosis,OT-II-Th9 cells; restimulated with antigen-pulsed APCs for 2 days in presence of QNZ,did not induce Th9 cell apoptosis
same,proliferation of Th17,OT-II-Th17 cells,minimal effect
